Measured values taken from PMC12135066, “Design and Preclinical Evaluation of Novel uPAR-Targeting Radiopeptides Modified with an Albumin-Binding Entity” (Molecular Pharmaceutics, 2025).

Each compound was assayed against T1, human uPAR (Homo sapiens, UniProt Q03405) (assay: uPAR-binding affinity (KD values), saturation experiments with HEK-uPAR cells). Conditions: saturation binding on HEK-uPAR cells, on ice (4 °C) 1 h, 1–1600 nM radiopeptide, ± AE105 40 µM; γ-counter; nonlinear regression; average ± SD, n=3.
T1 construct: host or cells: HEK cells (HEK-uPAR)
T1 sequence (Q03405 23-335): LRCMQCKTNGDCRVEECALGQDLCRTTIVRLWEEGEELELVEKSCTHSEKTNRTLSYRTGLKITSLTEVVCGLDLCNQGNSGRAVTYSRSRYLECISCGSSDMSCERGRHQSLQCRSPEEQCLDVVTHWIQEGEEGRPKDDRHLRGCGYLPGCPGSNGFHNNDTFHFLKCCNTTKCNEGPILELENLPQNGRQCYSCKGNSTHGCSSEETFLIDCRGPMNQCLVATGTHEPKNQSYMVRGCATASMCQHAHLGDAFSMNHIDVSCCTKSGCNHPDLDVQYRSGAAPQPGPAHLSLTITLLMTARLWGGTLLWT
Method: To determine the uPAR-binding affinity of the radiopeptides, saturation experiments were performed using HEK-uPAR cells in 48-well plates (Supporting Information). The cells were incubated on ice for 1 h in the presence or absence of excess AE105 (final concentration of 40 μM) together with the respective radiopeptide at a concentration range of 1–1600 nM. After rinsing the cells with PBS, they were lysed with an aqueous NaOH solution (1 M, 600 μL), transferred to radioimmunoassay tubes, and measured in a γ-counter (1480 Wizard, PerkinElmer). The K D values were determined by plotting the specific binding (values of samples incubated without AE105 minus the values of samples incubated with AE105) against the molar concentration of the added peptide. A nonlinear regression analysis was performed using GraphPad Prism software (version 8.3.1). The results were expressed as average ± SD of n = 3 independently performed experiments. […]
7. Determination of uPAR-Binding Affinity (KD Values)
Purpose: The uPAR-binding affinity of the radiopeptides were determined to investigate the impact of structural changes on the receptor binding.
Methods: HEK-uPAR cells were seeded in poly-D-lysine-coated 48-well plates (0.25 × 10 6 in 0.5 mL per well) using DMEM cell culture medium with supplements. The cells were incubated at 37 °C and 5% CO2 overnight to allow adhesion and growth. After removing the supernatant, the well plates with HEK-uPAR cells were placed on ice to prevent internalization of the radiopeptides. The cells were rinsed with cold PBS (0.5 mL, pH 7.4) followed by the addition of DMEM cell culture medium without supplements (450 µL/well) in the presence or absence of AE105 ( final concentration 40 µM) as a receptor-blocking agent. The radiopeptides (5 MBq/nmol) were diluted in PBS to obtain peptide concentrations ranging from 10 ‒16000 nM. From each dilution, 50 µL were added to each well to obtain final peptide concentrations of 1 nM to 1600 nM. The cells were incubated at 4 °C for 1 h before rinsing twice with PBS (0.5 mL, pH 7.4). The cells were lysed using an aqueous NaOH solution (1 M, 600 µL) and the lysates were transferred to RIA tubes for counting the activity in a γ-counter (1480 Wizard, PerkinElmer) . The KD values were determined by plotting specific binding (total binding minus unspecific binding) against the molar concentration of the added radiopeptide using GraphPad Prism (version 8.3.1). the results were then expressed as average K D values ± SD of n = 3 independent […]
Results: The results are reported in the main article.

Row | Structure (SMILES) | Kd
1 | CC(C)C[C@H](NC(=O)[C@H](Cc1ccc(O)cc1)NC(=O)[C@@H](CCCNC(=N)N)NC(=O)[C@@H](CO)NC(=O)[C@H](Cc1ccccc1)NC(=O)[C@H](CC1CCCCC1)NC(=O)[C@H](CC(=O)O)NC(=O)CN1CCN(CC(=O)O)CCN(CC(=O)O)CCN(CC(=O)O)CC1)C(=O)N[C@@H](Cc1c[nH]c2ccccc12)C(=O)N[C@@H](CO)C(N)=O [[^177Lu]Lu-DOTA-AE105, metal not drawn, reference compound] | 0.02 ± 0.001 µM
2 | CC(C)C[C@H](NC(=O)[C@H](Cc1ccc(O)cc1)NC(=O)[C@@H](CCCNC(=N)N)NC(=O)[C@@H](CO)NC(=O)[C@H](Cc1ccccc1)NC(=O)[C@H](CC1CCCCC1)NC(=O)[C@H](CC(=O)O)NC(=O)[C@H](CCCCNC(=O)CCCc1ccc(I)cc1)NC(=O)CN1CCN(CC(=O)O)CCN(CC(=O)O)CCN(CC(=O)O)CC1)C(=O)N[C@@H](Cc1c[nH]c2ccccc12)C(=O)N[C@@H](CO)C(N)=O [[^177Lu]Lu-uPAR-01, metal not drawn] | 0.048 ± 0.006 µM
3 | CC(C)C[C@H](NC(=O)[C@H](Cc1ccc(O)cc1)NC(=O)[C@@H](CCCNC(=N)N)NC(=O)[C@@H](CO)NC(=O)[C@H](Cc1ccccc1)NC(=O)[C@H](CC1CCCCC1)NC(=O)[C@H](CC(=O)O)NC(=O)[C@H](CCCCNC(=O)CCCc1ccc(I)cc1)NC(=O)[C@@H](N)CCCCNC(=O)CN1CCN(CC(=O)O)CCN(CC(=O)O)CCN(CC(=O)O)CC1)C(=O)N[C@@H](Cc1c[nH]c2ccccc12)C(=O)N[C@@H](CO)C(N)=O [[^177Lu]Lu-uPAR-04, metal not drawn] | 0.057 ± 0.021 µM
4 | CC(C)C[C@H](NC(=O)[C@H](Cc1ccc(O)cc1)NC(=O)[C@@H](CCCNC(=N)N)NC(=O)[C@@H](CO)NC(=O)[C@H](Cc1ccccc1)NC(=O)[C@H](CC1CCCCC1)NC(=O)[C@H](CC(=O)O)NC(=O)CCOCCOCCOCCOCCNC(=O)[C@H](CCCCNC(=O)CCCc1ccc(I)cc1)NC(=O)CN1CCN(CC(=O)O)CCN(CC(=O)O)CCN(CC(=O)O)CC1)C(=O)N[C@@H](Cc1c[nH]c2ccccc12)C(=O)N[C@@H](CO)C(N)=O [[^177Lu]Lu-uPAR-05, metal not drawn] | 0.01 ± 0.005 µM
